The values below are quoted from earlier work in publication PMC11237654, “Optimization of quenched fluorescent peptide substrates of SARS-CoV-2 3CL^pro main protease (Mpro) from proteomic identification of P6—P6' active site specificity” (Journal of Virology, 2024).

The data set has as its target SARS-CoV-2 3CL^pro (Severe acute respiratory syndrome coronavirus 2, UniProt P0DTD1, Q3569A). As to conditions: cited from earlier work.

Square brackets hold non-standard residues; d marks the D form. * marks the point of attachment. ACC = NC(=O)Cc1cc(=O)oc2cc(N*)ccc12; Tle = CC(C)(C)[C@H](N)C(=O)O; Abu = CC[C@H](N)C(=O)O

With Ac-[Abu][Tle]LQ-{ACC}, the kcat/KM was 859 M⁻¹ s⁻¹.
